Earlier results in US8343778B2, “Microfluidic microarray assemblies and methods of manufacturing and using” (Simon Fraser University, priority 2004, dated 2013).

Biological target: T1, Ure2p (Saccharomyces cerevisiae, UniProt P23202)
T1 sequence (P23202 1-354): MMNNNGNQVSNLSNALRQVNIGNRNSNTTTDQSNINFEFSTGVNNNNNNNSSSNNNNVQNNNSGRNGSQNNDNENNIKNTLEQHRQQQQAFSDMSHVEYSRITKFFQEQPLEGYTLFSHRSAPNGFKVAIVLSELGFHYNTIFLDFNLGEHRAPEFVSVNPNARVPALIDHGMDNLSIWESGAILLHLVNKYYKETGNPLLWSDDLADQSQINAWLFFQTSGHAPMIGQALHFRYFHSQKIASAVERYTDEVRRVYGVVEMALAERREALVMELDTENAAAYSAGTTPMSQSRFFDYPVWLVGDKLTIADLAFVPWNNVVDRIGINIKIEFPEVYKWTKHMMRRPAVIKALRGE
Conditions: high-density SMA of 1,3-dioxane-based small molecules exposed to fluorescently labeled Ure2p

Substance: uretupamine
- binding of fluorescently labeled Ure2p to arrayed small molecule: Ure2p-binding
